# Laboratory results as given in patent US5569742A (The Salk Institute for Biological Studies, priority 1994, dated 1996).
# Positions of bridges follow the written chain, without caps; N, C: chain ends. Residues, ends and D or L forms follow the SMILES beside them.
# Tests used:
# NPY Y1 receptor = biological target: T1, NPY Y1 receptor (Homo sapiens, UniProt P25929); assay: Receptor binding assay, displacement of [125I]PYY from SK-N-MC cells
# T1 construct: The human SK-N-MC cell line expresses the Y1 receptor subtype; endogenous in cells; host or cells: SK-N-MC human neuroblastoma cells (intact, plated cells)
# T1 sequence (P25929 1-384): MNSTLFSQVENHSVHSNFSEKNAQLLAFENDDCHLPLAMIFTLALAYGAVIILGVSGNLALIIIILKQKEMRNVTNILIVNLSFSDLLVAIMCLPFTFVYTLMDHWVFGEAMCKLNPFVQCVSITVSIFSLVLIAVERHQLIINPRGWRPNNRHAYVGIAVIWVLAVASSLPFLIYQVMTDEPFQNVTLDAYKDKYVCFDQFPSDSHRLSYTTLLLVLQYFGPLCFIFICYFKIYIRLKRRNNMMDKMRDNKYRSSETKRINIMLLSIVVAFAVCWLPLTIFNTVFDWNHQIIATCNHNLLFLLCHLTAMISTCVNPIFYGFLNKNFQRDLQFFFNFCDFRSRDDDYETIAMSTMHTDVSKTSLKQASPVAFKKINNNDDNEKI
# Protocol: (§1) Receptor binding assays are performed using the human neuroblastoma SK-N-MC cells Y1 receptors) and the SK-N-BE(2) cells (Y2 receptors). Cells are grown to confluence in […], trypsinized, and plated into 24 microwells plates (10^5 cells per well). Media for SK-N-MC cells is MEM Eagles (500 mL) buffer, containing L-glutamine (10 Ml, 200 mM, penicillin/streptomycin (5 Ml.10 000 mg/mL), nonessential amino acids (5 mL, 11 mg/mL), fetal calf serum (50 mL, 10%), and 500 μL of fungiyorl. Media for SK-N-BE(2) cells is DME-F12 (500 mL) buffer, containing L-glutamine (10 mL, 200 mM), penicillin/streptomycin (5 mL, 10 000 mg/mL), fetal calf serum (50 mL, 10%), and 500 μL of fungiyorl. After 1 day for the SK-N-BE(2) and 2 days for the SK-N-MC, the cells are grown to the appropriate density and are used for binding assays
# (§2) Peptides to be tested are prealiquoted at 100 μg/Ml in 100 μL of solution in MILLI-Q™ water (Millipore, U.S.A.). Solutions of peptides in different concentrations (seven doses from 10^-6 to 10^-10 M) are prepared in binding buffer (0.30M sucrose, 10 mM HEPES, 0.1% BSA, and pH is adjusted to 7.4 with NaOH).
# NPY Y2 receptor = biological target: T2, NPY Y2 receptor (Homo sapiens, UniProt P49146); assay: Receptor binding assay, displacement of [125I]PYY from SK-N-BE2 cells
# T2 construct: Functional Y2 receptors have been identified on the cell line SK-N-BE2; endogenous in cells; host or cells: SK-N-BE(2) human neuroblastoma cells (intact, plated cells)
# T2 sequence (P49146 1-381): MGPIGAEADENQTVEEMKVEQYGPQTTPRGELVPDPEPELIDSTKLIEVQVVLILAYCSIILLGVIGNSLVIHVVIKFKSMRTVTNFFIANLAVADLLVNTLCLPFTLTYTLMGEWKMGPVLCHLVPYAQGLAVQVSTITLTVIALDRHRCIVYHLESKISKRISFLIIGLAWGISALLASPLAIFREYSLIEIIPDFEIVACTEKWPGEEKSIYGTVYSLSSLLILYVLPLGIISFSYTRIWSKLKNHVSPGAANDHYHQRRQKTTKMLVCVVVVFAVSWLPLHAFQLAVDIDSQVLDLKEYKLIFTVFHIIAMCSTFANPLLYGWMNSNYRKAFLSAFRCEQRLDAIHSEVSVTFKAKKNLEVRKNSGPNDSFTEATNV
# Protocol: as §1, §2
smiles,measurement,setting,value
CC[C@H](C)[C@H](NC(=O)[C@H](Cc1ccc(O)cc1)NC(=O)[C@H](Cc1c[nH]cn1)NC(=O)[C@H](CCCNC(=N)N)NC(=O)[C@H](CC(C)C)NC(=O)[C@H](C)NC(=O)[C@H](CO)NC(=O)[C@@H]1CSSC[C@H](NC(=O)[C@H](CC(=O)O)NC(=O)[C@@H]2CCCN2C(=O)[C@H](CCCCN)NC(=O)[C@H](CO)NC(=O)[C@@H]2CCCN2C(=O)[C@@H](N)Cc2ccc(O)cc2)C(=O)N2CCC[C@H]2C(=O)NCC(=O)N1)C(=O)N[C@@H](CC(N)=O)C(=O)N[C@@H](CC(C)C)C(=O)N[C@H](C(=O)N[C@H](C(=O)N[C@@H](CCCNC(=N)N)C(=O)N1CCC[C@H]1C(=O)N[C@@H](CCCNC(=N)N)C(=O)N[C@@H](Cc1ccc(O)cc1)C(N)=O)[C@@H](C)O)[C@@H](C)CC [SEQ ID NO:8] (H-YPSKPDCPGCSALRHYINLITRPRY-NH2; disulfide 7-10),Ki,NPY Y1 receptor,32 nM
same,Ki,NPY Y2 receptor,> 1000 nM
